Experimental data published in patent US12066428B2, “Cell-substrate impedance monitoring of cancer cells” (Agilent Technologies, Inc., priority 2016, dated 2024).

Assays:
Assay type in all cases: cell-based, human
[1] = system: NK-92-mediated cytolysis of A549 cells; experiment: Inhibition of NK-92-mediated cytolysis by signaling pathway inhibitors (RT-CES); conditions: NK-92 pre-incubated with inhibitor, E/T 16:1
Procedure: Cytolytic analysis. Target cells were seeded into the wells of either 16-well or 96-well E-plate in 100 μL of media. Cell growth was dynamically monitored using the RT-CES system for a period of 24-34 hours, depending on the experiment until they reached log growth phase and formed a monolayer. Effector cells at different concentrations were then directly added into individual wells containing the target cells. For background control, effector cells were added to a well without target cells. After addition of the effector cells, the E-plate was returned to the e-plate station and the measurements were automatically collected by the analyzer every 15 minutes for up to 20 hours.
Data analysis. The integrated software is able to display entire history of the experiment from seeding the cells to termination of cytolysis. […] The cell index here is determined by calculating, for each measurement frequency f, the relative-change (Relative change (f)=(Rcell (f)−Rbackground(f))/Rbackground(f)) in resistance (a component of impedance) of a well when target cells are present in the well (Rcell (f)) with respect to background resistance (Rbackground) of the well when no cell is present and only cell culture medium is in the well, and then finding the maximum relative-change in resistance for all frequencies measured (Cell Index=max {Relative change (f)} for all measurement frequencies). […]

A549 cells [2] = experiment: A549 target cells incubated with inhibitors alone (RT-CES control); conditions: A549 target cells without NK-92
Source text: Inhibition of NK-mediated cytolysis of target cells by agents which block the signaling pathways leading to cytotoxicity. The interaction of NK receptors at the cell membrane by target cells leads to the activation of signal transduction machinery which results in cytolysis of target cells (Vivier et al., 2004). One of the key signaling cascades which regulate the fusion of perforin and granzyme containing secretory granules at the NK/target cell synaptic junction is the phosphatidyl-inositol-3-kinase (PI3K), Rac and mitogen activated protein kinase 1 (Erk) pathway (Djeu et al., 2002; Vivier et al., 2004). In order to determine the specificity of the signaling pathways in regulating NK-mediated cytotoxicity, we therefore sought to utilize specific inhibitors of the PI3K and Erk pathways. NK-92 cells were incubated with both the PI3K inhibitor Wortmannin and the Erk pathway inhibitor PD98059 or DMSO as a control and then added to A549 target cells. […] We calculated percent inhibition of cytolysis for both inhibitors at different time points after NK addition. […] In summary, the experiments shown here clearly establish that the RT-CES system can be used to monitor NK-mediated cytotoxic activity against a variety of different cell lines.

H460 cells = experiment: Time-dependent cell index of drug-treated cells (cell-substrate impedance)
Procedure: The device was positioned on a device station that was located in an incubator maintaining conditions of 37° C. and 5% CO2. The cells were cultured and treated at their exponential growth phase with different concentrations of paclitaxel. The dynamic response of the cells to different doses of paclitaxel was monitored by monitoring cell-substrate impedance in real time every 15 minutes for 50 hours after treatment using a cell-substrate impedance monitoring system. The cell-substrate impedance monitoring system calculated the cell index at each time point monitored and plotted the cell index as a function of time.
The device was positioned on a device station that was located in an incubator maintaining conditions of 37 degrees C. and 5% CO2.

A549 cells [3] = experiment: RT-CES dynamic monitoring of drug interaction with target cells; conditions: A549, highest concentration; cells later recover and re-proliferate
Procedure: Drug Treatment and Cytotoxicity Assessment.
In order to observe the kinetics of drug interaction with target cells, A549 non-small lung cancer cells were seeded in ACEA 96× E-plate™ and continuously monitored until the cells reached the log growth phase at which point different concentrations of paclitaxel were added to the cells at the indicated final concentration. […] While it remains to be determined if this phenomenon is due to metabolism and inactivation of paclitaxel or due to the emergence of paclitaxel-resistant subpopulation, this experiment clearly exemplifies the tremendous advantage of real-time measurement which is offered by the RT-CES system and allows the user to the opportunity to observe and assess the entire history of drug interaction with the target cells which provides further information in addition to cell viability or cytotoxicity. The phenomenon observed in FIG. 20A would've been easily missed by traditional single-point assays such as MTT.
Yet another major advantage of using the RT-CES system to continually monitor the interaction of drugs with target cells is that the user can obtain insight into the mechanism of action of the drug of interest. […]

COc1cccc(-c2cc(=O)c3ccccc3o2)c1N [PD98059]
effect on NK-92-mediated cytolysis of A549 cells [1]: dose-dependently inhibited | effect of inhibitor alone on A549 baseline (A549 cells [2]): minimal effect on the baseline

CC(=O)O[C@H]1C(=O)[C@@]2(C)[C@H]([C@H](OC(=O)c3ccccc3)[C@]3(O)C[C@H](OC(=O)[C@H](O)[C@@H](NC(=O)c4ccccc4)c4ccccc4)C(C)=C1C3(C)C)[C@]1(OC(C)=O)CO[C@@H]1C[C@@H]2O [paclitaxel]
time over which cell index exhibited a near-constant value (H460 cells; H460, 33 nanomolar): about 15 hours | cell index response after compound addition (H460 cells; H460, concentrations between 67 nanomolar and 500 nanomolar): gradual decrease in cell index after compound addition | effect on A549 cells (Cell Index trace) (A549 cells [3]): initially induces a cytotoxic effect
